Values after ≈ are worked out from the molar mass of the structure shown. Active and inactive are the calls of the source. The rule behind the calls is not given here.
How the values were obtained:
[1] = system: Vero; test: Cytotoxicity against Chlorocebus aethiops (African green monkey) Vero cells after 72 hr by MTT assay; assay type: cell-based; conditions: Chlorocebus sabaeus
[2] = system: Mycobacterium tuberculosis; test: Antimycobacterial activity against Mycobacterium tuberculosis H37Rv ATCC 27294 after 5 days by Alamar blue assay; assay type: functional

Work on `COc1ccc(-c2nn3c(-c4ccc(OC)cc4)c(-c4ccc(SC)cc4)nc3s2)cc1` yielded an IC50 [1] of 120 µM and an MIC ([2]; H37Rv ATCC 27294, 120 h) of 10 µg/mL (≈ 21.8 µM).

In the case of `CSc1ccc(-c2nc3sc(S(N)(=O)=O)nn3c2-c2ccccc2)cc1`, the IC50 [1] is reported as 192 µM and the MIC ([2]; H37Rv ATCC 27294, 120 h) is reported as 2.5 µg/mL (≈ 6.21 µM).

`COc1ccc(-c2nc3sc(C(F)(F)F)nn3c2-c2ccc(OC)cc2)cc1` showed an IC50 [1] of 147 µM and an MIC ([2]; H37Rv ATCC 27294, 120 h) of 1.25 µg/mL (≈ 3.08 µM).

`COc1ccc(-c2nn3c(-c4ccccc4)c(-c4ccc(SC)cc4)nc3s2)cc1` gave an IC50 [1] of 135 µM and an MIC ([2]; H37Rv ATCC 27294, 120 h) of 10 µg/mL (≈ 23.3 µM).

For `COc1c(N2CCNC(C)C2)c(F)cc2c(=O)c(C(=O)O)cn(C3CC3)c12` (stereo not given) [GATIFLOXACIN], the IC50 [1] was greater than 550 µM and the MIC ([2]; H37Rv ATCC 27294, 120 h) was 1 µg/mL (≈ 2.66 µM).

With `COc1ccc(-c2c(-c3ccccc3)nc3sc(C(F)(F)F)nn23)cc1` the MIC [2] was “inactive”.

In the case of `COc1ccc(-c2nn3c(-c4ccccc4)c(-c4ccc(C)cc4)nc3s2)cc1`, the MIC [2] is reported as “inactive”.

With `Cc1ccc(-c2nc3sc(S(N)(=O)=O)nn3c2-c2ccccc2)cc1` the IC50 [1] was 168 µM and the MIC ([2]; H37Rv ATCC 27294, 120 h) was 10 µg/mL (≈ 27 µM).

`COc1ccc(-c2c(-c3ccc(SC)cc3)nc3sc(-c4ccc(F)cc4)nn23)cc1` showed an IC50 [1] of 116 µM and an MIC ([2]; H37Rv ATCC 27294, 120 h) of 10 µg/mL (≈ 22.3 µM).

For `CSc1ccc(-c2nc3sc(-c4ccc(F)cc4)nn3c2-c2ccccc2)cc1`, the MIC [2] was “inactive”.

With `NNC(=O)c1ccncc1` [ISONIAZID] the IC50 [1] was greater than 450 µM and the MIC ([2]; H37Rv ATCC 27294, 120 h) was 0.25 µg/mL (≈ 1.82 µM).

`COc1ccc(-c2c(-c3ccc(SC)cc3)nc3sc(C(F)(F)F)nn23)cc1` showed an IC50 [1] of 123 µM and an MIC ([2]; H37Rv ATCC 27294, 120 h) of 5 µg/mL (≈ 11.9 µM).

With `COc1ccc(-c2c(-c3ccccc3)nc3sc(-c4ccc(F)cc4)nn23)cc1` the MIC [2] was “inactive”.

`COc1ccc(-c2nc3sc(S(N)(=O)=O)nn3c2-c2ccc(OC)cc2)cc1` gave an IC50 [1] of 247 µM and an MIC ([2]; H37Rv ATCC 27294, 120 h) of 1.25 µg/mL (≈ 3 µM).

In the case of `Cc1ccc(-c2nc3sc(C(F)(F)F)nn3c2-c2ccccc2)cc1`, the MIC [2] is reported as “inactive”.

For `COc1ccc(-c2c(-c3ccccc3)nc3sc(S(N)(=O)=O)nn23)cc1`, the IC50 [1] was 204 µM and the MIC ([2]; H37Rv ATCC 27294, 120 h) was 5 µg/mL (≈ 12.9 µM).

For `COc1ccc(-c2nn3c(-c4ccc(OC)cc4)c(-c4ccc(OC)cc4)nc3s2)cc1`, the IC50 [1] was 162 µM and the MIC ([2]; H37Rv ATCC 27294, 120 h) was 5 µg/mL (≈ 11.3 µM).

Compound `COc1ccc(-c2c(-c3ccc(SC)cc3)nc3sc(S(N)(=O)=O)nn23)cc1` has an IC50 [1] of 213 µM and an MIC ([2]; H37Rv ATCC 27294, 120 h) of 2.5 µg/mL (≈ 5.78 µM).

In the case of `CSc1ccc(-c2nc3sc(C(F)(F)F)nn3c2-c2ccccc2)cc1`, the IC50 [1] is reported as 140 µM and the MIC ([2]; H37Rv ATCC 27294, 120 h) is reported as 10 µg/mL (≈ 25.5 µM).

`COc1ccc(-c2nc3sc(-c4ccc(F)cc4)nn3c2-c2ccc(OC)cc2)cc1` was tested, and the IC50 [1] was 163 µM and the MIC ([2]; H37Rv ATCC 27294, 120 h) was 5 µg/mL (≈ 11.6 µM).

From ChEMBL document CHEMBL3044715, “Synthesis, spectral studies and biological evaluation of a novel series of 2-substituted-5,6-diarylsubstituted imidazo(2,1-b)-1,3,4-thiadiazole derivatives as possible anti-tubercular agents” (Med Chem Res, 2012)
